Assay results reported in patent US12241114B2, “Biophysical platform for drug development based on energy landscape” (BRANDEIS UNIVERSITY, priority 2014, dated 2025).
Where a chain is given by its changes, count along the chain named. One block for each molecule: values may come before it.

Columns and labels:
Y199H modern Aurora A = target: T1, Y199H modern Aurora A (Homo sapiens, UniProt O14965, T288V/Y199H); assay: Isothermal titration calorimetry of TPX2 binding to Y199H Aurora A; details: Y199H versus modern Aurora A
T1 sequence (O14965 122-403 Y199H/T288V): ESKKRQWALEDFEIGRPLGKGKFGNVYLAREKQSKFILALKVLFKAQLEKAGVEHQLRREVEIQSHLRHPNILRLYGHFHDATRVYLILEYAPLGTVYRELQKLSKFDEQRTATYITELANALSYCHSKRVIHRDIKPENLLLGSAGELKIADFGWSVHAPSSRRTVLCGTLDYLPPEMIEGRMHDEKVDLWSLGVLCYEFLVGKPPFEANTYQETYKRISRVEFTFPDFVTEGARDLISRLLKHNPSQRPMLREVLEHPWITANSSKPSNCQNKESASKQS
Protocol: FIGS. 33A-33C are plots and schematics showing Y199 is an Aurora A hotspot important in TPX2 binding.
All titrations were carried out using Nano ITC (TA instruments) and analyzed via the NanoAnalyze software using the independent fit model. Injectant was added in […] volume, every 180 s, with a constant stirring speed at 350 rpm and at 25° C. Prior to ITC titration, both protein and peptide were dialyzed/resuspended in 20 mM TrisHCl, 200 mM NaCl, 10% (v/v) glycerol, 1 mM TCEP, pH 7.50.

[1] = target: T2, unphosphorylated Aurora A (Homo sapiens, UniProt O14965); assay: Stopped-flow tryptophan fluorescence binding and dissociation kinetics on unphosphorylated Aurora A
T2 sequence (O14965 122-403): T1 sequence (O14965 122-403 Y199H/T288V) with H78Y, V167T
Protocol: The stopped-flow instrument is a SX20 series from AppliedPhotophysics.
In the following equations, K1, K2 and K3 equal to:
[formula] Error bars calculations of the dissociation constant parameter (calculated from the kinetics) are calculated using classical error propagation equations. Aurora A Wild-Type Binding to MantATP

Aurora A wild-type = target: T3, Aurora A wild-type (Homo sapiens, UniProt O14965); assay: FRET stopped-flow kinetics of MantATP binding to Aurora A; details: 10° C., double exponential
T3 sequence (O14965 122-403): T1 sequence (O14965 122-403 Y199H/T288V) with H78Y, V167T
Protocol: FRET using intrinsic tryptophan fluorescence is used to monitor MantATP binding kinetics to Aurora A at 10° C. […] In the release of MantATP experiment or koff, 10 μM/10 μM Aurora A/MantATP complex were diluted with buffer (ratio 1:10). A significant decrease in the fluorescence intensity of Aurora A (excitation at 295 nm, emission cut-off at 395 nm) can be seen due to the MantATP release.

- weakening of binding by Y199H mutation of Aurora A (Y199H modern Aurora A): approximately 20 fold
Molecule: modern TPX2: modern-day TPX2 protein, allosteric activator of Aurora A, residues 1-45 (MSQVKSSYSYDAPSDFINFSSLDDEGDTQNIDSWFEEKANLENKL; UniProt Q9ULW0 1-45, looked up, fragment)

- tighter binding from the conformational change after drug binding [1]: three orders of magnitude
- weakening of overall affinity by the DFG-in/-out equilibrium [1]: 20%
- dissociation kinetics ([1]; 25° C., after 30-fold dilution of the complex): slow, taking hours to be released
- Keq of the induced fit step ([1]; 25° C., global fit): 5×10^−4
Molecule: CO[C@@H](C(=O)N1Cc2n[nH]c(NC(=O)c3ccc(N4CCN(C)CC4)cc3)c2C1)c1ccccc1 [Danusertib]

- apparent rate constant of dissociation ([1]; 10° C., after 10-fold dilution of the complex): 50 s⁻¹
- observed off rate, times faster than the Danusertib off rate ([1]; Gleevec versus Danusertib): 10^6-10^7
Molecule: Cc1ccc(NC(=O)c2ccc(CN3CCN(C)CC3)cc2)cc1Nc1nccc(-c2cccnc2)n1 [Gleevec]

- plateau of second observed rate constant (Aurora A wild-type): around 20 s^−1
Molecule: MantATP
